Entries after “also recorded” stand apart in the source; their conditions may differ.

We go through 7 molecules from patent US11306115B2, “Aminoglycoside derivatives and uses thereof in treating genetic disorders” (priority 2015, dated 2022).

The test system of data set [1] is Rett syndrome causing premature stop codon mutations R168X, R270X and R294X. In kind it is cell-based, human. Particulars: offered as explanation of limited readthrough level, 0.3 and 1 mM.
For data set [2], the system named is cystic fibrosis G542X nonsense mutation. Put plainly: Readthrough activity in cell-free assay, cystic fibrosis G542X nonsense mutation suppression dose-response. Particulars: concentration range 0-50 μM; for mutation suppression activity (firefly expression and firefly/renilla expression ratio, G542X mutant sequence): FIGS. 4-7; for protein synthesis inhibitory effect (expression levels up or downstream of the WT sequence): FIGS. 4A, 4C, 4E, 6. Type of data set: biochemical, rabbit. As to the method:
(§1) The plasmids were transcribed in vitro and translated using rabbit reticulocytes (TNT mix) and then tested for the expression levels of the firefly and renilla luciferases. WT plasmids expressed both firefly and renilla luciferases while mutant plasmids expressed only the renilla luciferase due to the stop codon found in the inserted sequence. The readthrough assays were conducted for the tested compounds and the controls by adding the compounds to the in vitro transcription/translation reaction mixture. In case the compounds exerted suppression of the premature nonsense/stop codon mutation, the firefly luciferase was expressed and a fold-change in its expression was observed.
Readthrough activity of Cystic Fibrosis (CF) mutation G542X was tested using the compounds presented in Table 1, and the mutation suppression was calculated based on firefly/renilla expression ratio values, and normalized with respect to the expression level of the WT and the control sample (no tested compound).

Data set [3] relates to Rett syndrome R168X, R270X and R294X nonsense mutations. Put plainly: Readthrough activity in cell-free assay, Rett syndrome nonsense mutations suppression. In kind it is biochemical, rabbit. Particulars: 5 μM, FIGS. 8A-C; for firefly/renilla expression ratio compared with the control, wild type cell extracts: WT. As to the method: as §1
FIGS. 8A-C present the results of Rett syndrome R168X (FIG. 8A), R270X (FIG. 8B) and R294X (FIG. 8C) nonsense mutations suppression cell-free assays conducted for six exemplary compounds according to embodiments of the present invention, NB144, NB145, NB146, NB150, NB151 and NB152, at a concentration of 5 μM. As shown therein, when compared with the control (non-treated cell extracts), the wild type cell extracts are unaffected (approx. 100%); however, in all three Rett syndrome mutation models there is a significant impact of the different treatments on the readthrough activity (>>>100%).

Take `CN[C@@H]1[C@@H](O)[C@@H](O[C@@H]2[C@@H](O)[C@H](O[C@H]3O[C@H]([C@@H](C)O)[C@@H](O)[C@H](O)[C@H]3N)[C@@H](N)C[C@H]2N)OC[C@]1(C)O` [Compound G418]: the cytotoxicity result in data set [1] is listed as “significant cytotoxicity”.
With `C[C@@H](O)C1O[C@H](O[C@@H]2C(N)CC(NCc3ccccc3)[C@@H](O)C2O)C(N)C(O)[C@@H]1O` (stereo in doubt) [NB145], the “mutation suppression activity (firefly expression and firefly/renilla expression ratio, G542X mutant sequence)” value in data set [2] is on record as “notable dose-dependent readthrough activity”. Also, the “firefly/renilla expression ratio compared with the control, wild type cell extracts” value in data set [3] was “approx. 100%”.
On the same counts, the results for `C[C@@H](O)C1O[C@H](O[C@@H]2C(N)CC(NC(=N)N)[C@@H](O)C2O)C(N)[C@H](O)[C@@H]1O` (stereo in doubt) [NB150] are “notable dose-dependent readthrough activity” and “approx. 100%”.
Take `C[C@@H](O)C1O[C@H](O[C@@H]2C(N)C[C@@H](N)C(O)C2O[C@@H]2O[C@H](CNC(=N)N)C(O)C2O)C(N)C(O)[C@@H]1O` (stereo in doubt) [NB151]: the “mutation suppression activity (firefly expression and firefly/renilla expression ratio, G542X mutant sequence)” value in data set [2] is reported as “notable dose-dependent readthrough activity”. The “firefly/renilla expression ratio compared with the control, wild type cell extracts” value in data set [3] is “approx. 100%”.
In the case of `CCCNC1CC(N)[C@@H](O[C@H]2OC([C@@H](C)O)[C@@H](O)C(O)C2N)C(O)[C@@H]1O` (stereo in doubt) [NB146], in data set [2], the “mutation suppression activity (firefly expression and firefly/renilla expression ratio, G542X mutant sequence)” value is “clearly dose-dependent; also recorded: notable dose-dependent readthrough activity”; the “protein synthesis inhibitory effect (expression levels up or downstream of the WT sequence)” value is listed as “more protein synthesis inhibitory effect”. Besides, in data set [3], the “readthrough activity, comparison in words” value was “better activity compared to NB144 and NB145”; the “firefly/renilla expression ratio compared with the control, wild type cell extracts” value is listed as “approx. 100%”.
Consider `CC(C)CNC1CC(N)[C@@H](O[C@H]2OC([C@@H](C)O)[C@@H](O)C(O)C2N)C(O)[C@@H]1O` (stereo in doubt) [NB144], for which, in data set [2], the “mutation suppression activity (firefly expression and firefly/renilla expression ratio, G542X mutant sequence)” value is on record as “notable dose-dependent readthrough activity”. The “firefly/renilla expression ratio compared with the control, wild type cell extracts” value in data set [3] was “approx. 100%”.
For the molecule `C[C@@H](O)C1O[C@H](O[C@@H]2C(N)C[C@@H](NC(=O)C(O)CCN)C(O)C2O[C@@H]2O[C@H](CNC(=N)N)C(O)C2O)C(N)C(O)[C@@H]1O` (stereo in doubt) [NB152], in data set [2], the “mutation suppression activity (firefly expression and firefly/renilla expression ratio, G542X mutant sequence)” value is listed as “notable dose-dependent readthrough activity”; the “protein synthesis inhibitory effect (expression levels up or downstream of the WT sequence)” value is “protein synthesis inhibition”. In data set [3], the “readthrough activity, comparison in words” value was “higher activity compared to NB150 and NB151”; the “firefly/renilla expression ratio compared with the control, wild type cell extracts” value is “approx. 100%”.
